Data from PMC4096627 (Bioorganic & medicinal chemistry, 2014).
Where a name gives a salt, the structure may show the parent alone.

Assays:
Dopamine Receptor D4 [1] = biological target: T1, Dopamine Receptor D4 (Homo sapiens, UniProt P21917); experiment: NIMH-PDSP binding affinity at dopamine receptor subtype D4; conditions: for D2/D4: ratio of Ki D2 to Ki D4
T1 sequence (P21917 1-419): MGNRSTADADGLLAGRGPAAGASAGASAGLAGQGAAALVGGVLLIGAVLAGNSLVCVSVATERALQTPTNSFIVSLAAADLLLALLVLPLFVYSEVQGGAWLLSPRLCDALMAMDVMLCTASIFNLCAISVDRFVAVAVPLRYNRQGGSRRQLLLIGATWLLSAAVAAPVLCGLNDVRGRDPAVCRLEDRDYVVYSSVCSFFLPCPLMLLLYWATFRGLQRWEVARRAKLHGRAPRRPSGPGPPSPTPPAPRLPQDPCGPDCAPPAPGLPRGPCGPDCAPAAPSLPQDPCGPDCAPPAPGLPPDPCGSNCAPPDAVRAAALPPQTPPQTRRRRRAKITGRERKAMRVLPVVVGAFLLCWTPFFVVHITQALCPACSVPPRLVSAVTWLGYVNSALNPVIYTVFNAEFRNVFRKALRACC

Dopamine Receptor D5 = Dopamine Receptor D5 (Homo sapiens, UniProt P21918); experiment: NIMH-PDSP binding affinity at dopamine receptor subtype D5; conditions: for primary assay inhibition at D5: primary assay threshold
Dopamine Receptor D4 [2] = biological target: T1, Dopamine Receptor D4; conditions: compounds 1-7, D2-like data; ref Previous publications from our lab; cited from earlier work
Dopamine Receptor D1 = Dopamine Receptor D1 (Homo sapiens, UniProt P21728); experiment: NIMH-PDSP binding affinity at dopamine receptor subtype D1; conditions: for primary assay inhibition at D1: primary assay threshold
Dopamine Receptor D3 = Dopamine Receptor D3 (Homo sapiens, UniProt P35462); experiment: NIMH-PDSP binding affinity at dopamine receptor subtype D3
Dopamine Receptor D2 = Dopamine Receptor D2 (Homo sapiens, UniProt P14416); experiment: NIMH-PDSP binding affinity at dopamine receptor subtype D2; conditions: for primary assay inhibition at D2: primary assay threshold
Chain of Dopamine Receptor D2 (P14416 whole entry): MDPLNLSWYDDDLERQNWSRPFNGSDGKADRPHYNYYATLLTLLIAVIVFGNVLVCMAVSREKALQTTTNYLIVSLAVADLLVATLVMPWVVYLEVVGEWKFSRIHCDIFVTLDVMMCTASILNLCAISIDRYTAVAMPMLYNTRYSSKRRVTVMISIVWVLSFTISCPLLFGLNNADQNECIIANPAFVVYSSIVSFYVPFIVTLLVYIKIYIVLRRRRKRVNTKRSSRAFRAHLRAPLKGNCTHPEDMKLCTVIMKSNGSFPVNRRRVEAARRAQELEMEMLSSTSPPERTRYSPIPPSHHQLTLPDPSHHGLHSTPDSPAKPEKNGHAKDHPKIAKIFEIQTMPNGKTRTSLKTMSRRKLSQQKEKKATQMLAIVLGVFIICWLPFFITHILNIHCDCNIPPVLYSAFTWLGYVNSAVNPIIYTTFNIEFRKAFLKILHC

Chain of Dopamine Receptor D5 (P21918 whole entry): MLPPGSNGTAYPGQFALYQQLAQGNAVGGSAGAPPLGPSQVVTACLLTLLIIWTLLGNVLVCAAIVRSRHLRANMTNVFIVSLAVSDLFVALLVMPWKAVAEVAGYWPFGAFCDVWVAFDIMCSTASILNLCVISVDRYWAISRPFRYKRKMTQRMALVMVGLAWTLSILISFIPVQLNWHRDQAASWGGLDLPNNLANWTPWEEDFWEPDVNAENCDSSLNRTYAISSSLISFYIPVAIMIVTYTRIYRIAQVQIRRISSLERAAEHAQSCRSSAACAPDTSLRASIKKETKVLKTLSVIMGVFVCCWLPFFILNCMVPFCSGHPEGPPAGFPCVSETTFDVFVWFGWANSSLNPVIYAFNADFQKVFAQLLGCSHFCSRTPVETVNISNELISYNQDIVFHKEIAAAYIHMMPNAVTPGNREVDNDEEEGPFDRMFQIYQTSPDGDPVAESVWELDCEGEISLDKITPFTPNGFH
Chain of Dopamine Receptor D1 (P21728 whole entry): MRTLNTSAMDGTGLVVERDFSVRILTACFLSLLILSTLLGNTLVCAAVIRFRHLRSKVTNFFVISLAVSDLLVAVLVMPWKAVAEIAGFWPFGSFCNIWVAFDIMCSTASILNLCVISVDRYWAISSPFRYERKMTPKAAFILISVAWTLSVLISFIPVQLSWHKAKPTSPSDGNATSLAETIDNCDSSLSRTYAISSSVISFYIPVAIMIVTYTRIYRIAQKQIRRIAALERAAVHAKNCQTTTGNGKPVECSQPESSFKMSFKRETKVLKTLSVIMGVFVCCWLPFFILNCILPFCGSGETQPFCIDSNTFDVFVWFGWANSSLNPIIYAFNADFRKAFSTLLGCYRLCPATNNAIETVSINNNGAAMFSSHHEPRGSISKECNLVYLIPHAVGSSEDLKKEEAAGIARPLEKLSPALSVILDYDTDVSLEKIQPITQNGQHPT
Chain of Dopamine Receptor D3 (P35462 whole entry): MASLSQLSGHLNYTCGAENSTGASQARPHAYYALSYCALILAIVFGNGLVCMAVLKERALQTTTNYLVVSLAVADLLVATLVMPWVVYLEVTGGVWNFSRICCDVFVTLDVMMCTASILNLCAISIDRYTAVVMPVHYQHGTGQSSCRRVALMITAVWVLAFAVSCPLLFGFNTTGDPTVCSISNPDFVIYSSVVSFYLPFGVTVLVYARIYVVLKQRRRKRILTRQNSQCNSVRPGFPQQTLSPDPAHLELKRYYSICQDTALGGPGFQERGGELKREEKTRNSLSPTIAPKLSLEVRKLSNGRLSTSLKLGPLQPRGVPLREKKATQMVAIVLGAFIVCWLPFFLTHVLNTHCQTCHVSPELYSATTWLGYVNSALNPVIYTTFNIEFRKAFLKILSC

D2/D4 (Dopamine Receptor D4 [1]) | SMILES | primary assay inhibition at D5 (Dopamine Receptor D5) | primary assay inhibition at D1 (Dopamine Receptor D1) | also measured
14.5 | O=C(CCCN1CCN(c2ccc(Cl)cc2)CC1)c1ccc(F)cc1 [Compound 1] |  |  | D3/D4 (Dopamine Receptor D4 [1]; ratio of Ki D3 to Ki D4): 23.1
 | [O-][S+](CCCN1CCN(c2ccc(Cl)cc2)CC1)c1ccc(F)cc1 (centres unmarked) [Compound 2] | MT (Missed primary assay threshold of 50% inhibition) | MT (Missed primary assay threshold of 50% inhibition) | pKi ±SEM at the Dopamine Receptor Subtype D4 (Dopamine Receptor D4 [2]): 7.89±0.05
 | Clc1ccc(N2CCN(CCCOc3ccccc3)CC2)cc1 [Compound 6] |  |  | pKi ±SEM at the Dopamine Receptor Subtype D4 (Dopamine Receptor D4 [2]): 8.26±0.03
 | O=C1c2ccc(F)cc2CC1CCN1CCN(c2ccc(Cl)cc2)CC1 (centres unmarked) [Compound 8, 2-(2-(4-(4-Chlorophenyl)piperazin-1-yl)ethyl)-5-fluoro-indan-1-one hydrochloride] | MT (Missed primary assay threshold of 50% inhibition) |  | 
>277 | O=C1c2ccccc2CC1CCN1CCN(c2ccc(Cl)cc2)CC1 (centres unmarked) [Compound 9, 2-{2-[4-(4-Chloro-phenyl)-piperazin-1-yl]-ethyl}-indan-1-one tosylate] | MT (Missed primary assay threshold of 50% inhibition) |  | 
 | Fc1ccc2c(c1)CC(CCN1CCN(c3ccc(Cl)cc3)CC1)C2 (centres unmarked) [Compound 10, 1-(4-Chlorophenyl)-4-(2-(5-fluoro-2,3-dihydro-1H-inden-2-yl)ethyl)piperazine dihydrochloride] | MT (Missed primary assay threshold of 50% inhibition) |  | 
 | Cc1ccc(N2CCN(CCCOc3ccc(F)cc3)CC2)nc1 [Compound 15a, 1-(3-(4-Fluorophenoxy)propyl)-4-(5-methylpyridin-2-yl)piperazine] |  |  | Ki (Dopamine Receptor D4 [1]; pKi ±SEM at the Dopamine Receptor Subtype D4): 1.1 nM
 | Cc1ccc(N2CCN(CCCSc3ccc(F)cc3)CC2)nc1 [Compound 15b, 1-(3-((4-Fluorophenyl)thio)propyl)-4-(5-methylpyridin-2-yl)piperazine] |  |  | pKi ±SEM at the Dopamine Receptor Subtype D3 (Dopamine Receptor D3): 6.8±0.1; pKi ±SEM at the Dopamine Receptor Subtype D5 (Dopamine Receptor D5): 5.7±0.1; pKi ±SEM at the Dopamine Receptor Subtype D2 (Dopamine Receptor D2): 6±0.1
 | Fc1ccc(OCCCN2CCN(c3ncccn3)CC2)cc1 [Compound 16a] | MT (Missed primary assay threshold of 50% inhibition) |  | 
 | Clc1ccc(N2CCN(CCc3cc4ccccc4o3)CC2)cc1 [Compound 23, 1-(2-(Benzofuran-2-yl)ethyl)-4-(4-chlorophenyl)piperazine] | MT (Missed primary assay threshold of 50% inhibition) | MT (Missed primary assay threshold of 50% inhibition) | primary assay inhibition at D3 (Dopamine Receptor D3; primary assay threshold): MT (Missed primary assay threshold of 50% inhibition); primary assay inhibition at D2 (Dopamine Receptor D2): MT (Missed primary assay threshold of 50% inhibition)
 | Clc1ccc(N2CCN(CCCc3cc4ccccc4o3)CC2)cc1 [Compound 24, 1-(3-(Benzofuran-2-yl)propyl)-4-(4-chlorophenyl)piperazine] | MT (Missed primary assay threshold of 50% inhibition) |  | 
>4.2- | Clc1ccc(N2CC3CC2CN3CCCc2cc3ccccc3o2)cc1 (centres unmarked) [Compound 25, 2-(3-(Benzofuran-2-yl)propyl)-5-(4-chlorophenyl)-2,5-diazabicyclo[2.2.1]heptane] | MT (Missed primary assay threshold of 50% inhibition) | MT (Missed primary assay threshold of 50% inhibition) | primary assay inhibition at D2 (Dopamine Receptor D2): MT (Missed primary assay threshold of 50% inhibition)
 | c1cnc(N2CCN(CCCCc3nc4ccccc4s3)CC2)nc1 [Compound 27] | MT (Missed primary assay threshold of 50% inhibition) | MT (Missed primary assay threshold of 50% inhibition) | 
 | c1cnc(N2CCN(CCCc3nc4ccccc4s3)CC2)nc1 [Compound 28, 2-(3-(4-(Pyrimidin-2-yl)piperazin-1-yl)propyl)benzo[d]thiazole trihydrobromide] | MT (Missed primary assay threshold of 50% inhibition) | MT (Missed primary assay threshold of 50% inhibition) | inhibition of the appropriate radioligand at D5 (Dopamine Receptor D5; other DA subtypes): less than 50%; inhibition of the appropriate radioligand at D1 (Dopamine Receptor D1; other DA subtypes): less than 50%

SMILES | D2/D4 (Dopamine Receptor D4 [1]) | primary assay inhibition at D5 (Dopamine Receptor D5) | primary assay inhibition at D1 (Dopamine Receptor D1) | also measured
Clc1ccc(N2CCN(CCCCc3nc4ccccc4o3)CC2)cc1 [Compound 20, 2-(4-(4-(4-Chlorophenyl)piperazin-1-yl)butyl)benzo[d]oxazole] | >327 | MT (Missed primary assay threshold of 50% inhibition) | MT (Missed primary assay threshold of 50% inhibition) | primary assay inhibition at D2 (Dopamine Receptor D2): MT (Missed primary assay threshold of 50% inhibition)
Clc1ccc(N2CCN(CCc3nc4ccccc4o3)CC2)cc1 [Compound 22, 2-(2-(4-(4-Chlorophenyl)piperazin-1-yl)ethyl)benzo[d]oxazole] | >7.1 | MT (Missed primary assay threshold of 50% inhibition) | MT (Missed primary assay threshold of 50% inhibition) | primary assay inhibition at D2 (Dopamine Receptor D2): MT (Missed primary assay threshold of 50% inhibition)
